From US10183938B2, “Geminal substituted quinuclidine amide compounds as agonists of α-7 nicotonic acetylcholine receptors” (AXOVANT SCIENCES GMBH, priority 2014, dated 2019)
Counter-ions that a name gives are not always drawn.

Biological target: human α7 nAChRs transiently expressed in Xenopus laevis oocytes (Homo sapiens (Human), UniProt P36544)
Assay: Oocyte electrophysiology screen (TEVC)
Format: cell-based
Conditions: 0.01 mM test compound, peak current relative to 0.2 mM ACh
Method: Oocyte Electrophysiology Screen (% ACh @ 10 μM Oocyte)
The Oocyte Electrophysiology Screen studies were performed under contract by HiQScreen Geneva, Switzerland. All experiments were carried out at human α7 nAChRs transiently expressed in Xenopus laevis oocytes using the method of cDNA expression. Currents evoked by acetylcholine or other agonist ligands were recorded using the standard two-electrode voltage-clamp configuration (TEVC). X. laevis oocytes were prepared and injected using standard procedures. Briefly, ovaries were harvested from X. laevis females that were deeply anesthetized and pithed following the animal rights rule from the Geneva canton. A small piece of ovary was isolated for immediate preparation while the remaining part was placed at 4° C. in a sterile Barth solution containing in mM: NaCl 88, KCl 1, NaHCO3 2.4, HEPES 10, MgSO4.7H2O 0.82, Ca(NO3)2.4H2O 0.33, CaCl2.6H2O 0.41, at pH 7.4, and supplemented with 20 μg/mL of kanamycin, 100 unit/mL penicillin and 100 μg/mL streptomycin. […] Cells were held at −80 mV. Data were filtered at 10 Hz, captured at 100 Hz and analyzed using proprietary data acquisition and analysis software running under Matlab (Mathworks Inc.).
Experimental Protocol and Analysis
After establishing a baseline transmembrane current, acetylcholine (ACh) was applied for 5 seconds at a concentration of 0.2 mM to establish a control ACh-evoked current response. Following a wash period of 90 s in OR2 medium (free of ACh), cells were then exposed for 30 s to the test compound applied at 0.01 mM. The same reference ACh test pulse was immediately given at the end of the compound exposure and again after 90 s of recovery in OR2 Medium (free of ACh or test compound). All data were determined in triplicate. The response evoked by the test compound was expressed as a percentage of that evoked by ACh: Response (% ACh)=100×(Itest/IACh) where Itest is the peak inward current measured during exposure to 0.01 mM of test compound and IACh is the peak inward current measured in the presence of ACh.

human α7 nAChRs transiently expressed in Xenopus laevis oocytes, sequence (P36544 23-502 limits assumed): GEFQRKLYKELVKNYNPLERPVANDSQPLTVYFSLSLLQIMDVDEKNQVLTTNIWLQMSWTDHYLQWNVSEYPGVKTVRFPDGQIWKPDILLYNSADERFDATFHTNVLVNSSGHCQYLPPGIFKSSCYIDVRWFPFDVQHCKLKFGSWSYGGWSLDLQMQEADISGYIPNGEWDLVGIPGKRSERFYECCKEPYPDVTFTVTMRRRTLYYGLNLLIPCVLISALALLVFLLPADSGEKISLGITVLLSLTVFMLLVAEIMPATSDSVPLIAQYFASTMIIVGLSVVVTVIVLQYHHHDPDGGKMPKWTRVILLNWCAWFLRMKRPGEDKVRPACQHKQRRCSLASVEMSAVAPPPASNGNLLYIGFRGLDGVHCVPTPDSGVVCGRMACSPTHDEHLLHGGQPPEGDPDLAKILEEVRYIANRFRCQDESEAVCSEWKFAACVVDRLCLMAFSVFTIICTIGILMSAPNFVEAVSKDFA

Compound	% ACh @ 10 μM Oocyte	% ACh @ 10 μM Oocyte (hydrochloride)
O=C(NC1C2CCN(CC2)C12CC2)c1cc2cc(F)ccc2s1 (single isomer, unassigned; enantiomer2) [64b, 5-fluoro-N-(1′-azaspiro[cyclopropane-1,2′-bicyclo[2.2.2]octan]-3′-yl)benzo[b]thiophene-2-carboxamide-enantiomer2]	1 % ACh	–
O=C(NC1C2CCN(CC2)C12CC2)c1cc2ccc(Cl)cc2s1 (single isomer, unassigned; enantiomer2) [65b, 6-chloro-N-(1′-azaspiro[cyclopropane-1,2′-bicyclo[2.2.2]octan]-3′-yl)benzo[b]thiophene-2-carboxamide-enantiomer2 hydrochloride]	–	1 % ACh
O=C(NC1C2CCN(CC2)C12CC2)c1cc2cc(Cl)c(Cl)cc2s1 (single isomer, unassigned; enantiomer2) [67b, 5,6-dichloro-N-(1′-azaspiro[cyclopropane-1,2′-bicyclo[2.2.2]octan]-3′-yl)benzo[b]thiophene-2-carboxamide-enantiomer2 hydrochloride]	1 % ACh	–
Cc1ccc2cc(C(=O)NC3C4CCN(CC4)C34CC4)sc2c1 (single isomer, unassigned; enantiomer2) [68b, 6-methyl-N-(1′-azaspiro[cyclopropane-1,2′-bicyclo[2.2.2]octan]-3′-yl)benzo[b]thiophene-2-carboxamide-enantiomer2 hydrochloride]	–	5 % ACh
Cc1ccc2sc(C(=O)NC3C4CCN(CC4)C34CC4)cc2c1 (single isomer, unassigned; enantiomer2) [69b, 5-methyl-N-(1′-azaspiro[cyclopropane-1,2′-bicyclo[2.2.2]octan]-3′-yl)benzo[b]thiophene-2-carboxamide-enantiomer2 hydrochloride]	–	1 % ACh
O=C(NC1C2CCN(CC2)C12CC2)c1cc2cc(C(F)(F)F)ccc2s1 (single isomer, unassigned; enantiomer2) [70b, N-(1′-azaspiro[cyclopropane-1,2′-bicyclo[2.2.2]octan]-3′-yl)-5-(trifluoromethyl)benzo[b]thiophene-2-carboxamide-enantiomer2 hydrochloride]	–	1 % ACh
O=C(NC1C2CCN(CC2)C12CC2)c1cc2ccc(C3CC3)cc2s1 (single isomer, unassigned; enantiomer2) [71b, 6-cyclopropyl-N-(1′-azaspiro[cyclopropane-1,2′-bicyclo[2.2.2]octan]-3′-yl)benzo[b]thiophene-2-carboxamide-enantiomer2 hydrochloride]	–	2 % ACh
O=C(NC1C2CCN(CC2)C12CC2)c1cc2cc(C3CC3)ccc2s1 (single isomer, unassigned; enantiomer2) [72b, 5-cyclopropyl-N-(1′-azaspiro[cyclopropane-1,2′-bicyclo[2.2.2]octan]-3′-yl)benzo[b]thiophene-2-carboxamide-enantiomer2 hydrochloride]	–	1 % ACh
COc1ccc2cc(C(=O)NC3C4CCN(CC4)C34CC4)sc2c1 (single isomer, unassigned; enantiomer2) [73b, 6-methoxy-N-(1′-azaspiro[cyclopropane-1,2′-bicyclo[2.2.2]octan]-3′-yl)benzo[b]thiophene-2-carboxamide-enantiomer2 hydrochloride]	–	1 % ACh
COc1ccc2sc(C(=O)NC3C4CCN(CC4)C34CC4)cc2c1 (single isomer, unassigned; enantiomer2) [74b, 5-methoxy-N-(1′-azaspiro[cyclopropane-1,2′-bicyclo[2.2.2]octan]-3′-yl)benzo[b]thiophene-2-carboxamide-enantiomer2 hydrochloride]	–	4 % ACh
CC1(C)[C@H](NC(=O)c2cc3ccccc3s2)C2CCN1CC2 [(R)-1, (R)—N-(2,2-dimethylquinuclidin-3-yl)benzo[b]thiophene-2-carboxamide hydrochloride]	401 % ACh	–
COc1ccc2sc(C(=O)N[C@@H]3C4CCN(CC4)C3(C)C)cc2c1 [(R)-21, (R)—N-(2,2-dimethylquinuclidin-3-yl)-5-methoxybenzo[b]thiophene-2-carboxamide hydrochloride]	73 % ACh	–
Cc1csc2cc(C(=O)N[C@@H]3C4CCN(CC4)C3(C)C)ccc12 [(R)-25, (R)—N-(2,2-dimethylquinuclidin-3-yl)-3-methylbenzo[b]thiophene-6-carboxamide hydrochloride]	7 % ACh	–
CC1(C)[C@H](NC(=O)c2ccc3cc[nH]c3c2)C2CCN1CC2 [(R)-26, (R)—N-(2,2-dimethylquinuclidin-3-yl)-1H-indole-6-carboxamide hydrochloride]	687 % ACh	–
CC1(C)[C@H](NC(=O)c2cnn3ncccc23)C2CCN1CC2 [(R)-27, (R)—N-(2,2-dimethylquinuclidin-3-yl)pyrazolo[1,5-b]pyridazine-3-carboxamide hydrochloride]	0 % ACh	–
CC1(C)[C@H](NC(=O)c2nc3ccccc3s2)C2CCN1CC2 [(R)-29, (R)—N-(2,2-dimethylquinuclidin-3-yl)benzo[d]thiazole-2-carboxamide hydrochloride]	448 % ACh	–
CC1(C)[C@H](NC(=O)c2ccc3ccoc3c2)C2CCN1CC2 [(R)-31, (R)—N-(2,2-dimethylquinuclidin-3-yl)benzofuran-6-carboxamide hydrochloride]	294 % ACh	–
Cc1nc2cc(C(=O)N[C@@H]3C4CCN(CC4)C3(C)C)ccc2o1 [(R)-32, (R)—N-(2,2-dimethylquinuclidin-3-yl)-2-methylbenzo[d]oxazole-5-carboxamide]	61 % ACh	–
Cc1nc2ccc(C(=O)N[C@@H]3C4CCN(CC4)C3(C)C)cc2o1 [(R)-33, (R)—N-(2,2-dimethylquinuclidin-3-yl)-2-methylbenzo[d]oxazole-6-carboxamide]	6 % ACh	–
Cc1nc2cc(C(=O)N[C@@H]3C4CCN(CC4)C3(C)C)ccc2s1 [(R)-34, (R)—N-(2,2-dimethylquinuclidin-3-yl)-2-methylbenzo[d]thiazole-5-carboxamide hydrochloride]	159 % ACh	–
Cc1nc2ccc(C(=O)N[C@@H]3C4CCN(CC4)C3(C)C)cc2s1 [(R)-35, (R)—N-(2,2-dimethylquinuclidin-3-yl)-2-methylbenzo[d]thiazole-6-carboxamide hydrochloride]	6 % ACh	–
CC1(C)[C@H](NC(=O)c2ccc3occc3n2)C2CCN1CC2 [(R)-37, (R)—N-(2,2-dimethylquinuclidin-3-yl)furo[3,2-b]pyridine-5-carboxamide hydrochloride]	5 % ACh	–
Cc1cc2cc(C(=O)N[C@@H]3C4CCN(CC4)C3(C)C)ccc2o1 [(R)-38, (R)—N-(2,2-dimethylquinuclidin-3-yl)-2-methylbenzofuran-5-carboxamide hydrochloride]	339 % ACh	–
CC1(C)[C@H](NC(=O)c2ccc3oc(Cl)cc3c2)C2CCN1CC2 [(R)-39, (R)-2-chloro-N-(2,2-dimethylquinuclidin-3-yl)benzofuran-5-carboxamide hydrochloride]	697 % ACh	–
